According to patent publication US9750753B1, “Method of treating diseases associated with LRRK2 mutation using hexachlorophene” (University of South Florida, priority 2014, dated 2017):
“Also recorded” adds a separate entry of the source.

Legend:
[1] = test system: LRRK2; conditions: cited from earlier work
[2] = test system: rats; conditions: cited from earlier work; for protection from toxicity induced by B10: pre-treatment prior to administration of B10, rats
[3] = biological target: T1, wild-type human LRRK2 protein (Homo sapiens, UniProt Q5S007); experiment: Western blot of overexpressed wild-type LRRK2 in transfected HeLa cells; assay type: cell-based
T1 construct: expressed in transfected cells; host or cells: HeLa
Procedure: (§1) HeLa cells overexpressing wild-type or mutant human LRRK2 protein and N9 cells expressing endogenous LRRK2 protein were treated with hexachlorophene (labeled as B10 in FIGS. 1 and 2) for 24 hours.
(§2) HeLa cells were grown in DMEM with 10% FBS and 1% penicillin and streptomycin. Cells were transfected with constructs for LRRK2 and the G2019S mutant using Lipofectamine 2000. HeLa cells were used due to the ease of transfection with LRRK2 and its mutants.
(§3) Samples were harvested by using MPER mammalian extraction buffer (Pierce, Thermo Scientific) containing protease and phosphatase inhibitors. After protein estimation using a BCA kit (Pierce, Thermo Scientific), equal amounts of protein from each sample was subjected to gel electrophoresis and western blotting. Phospho (p-) and Total (T-) LRRK2 (abcam) and GAPDH (Meridian Life Sciences) antibodies were used to detect phospho and total LRRK2 and GAPDH, respectively. Analysis of changes in the LRRK2 level was performed using Scion Image software.

[4] = test system: HeLa cells
[5] = dose of about 10 mg/kg, transgenic TDP43 mouse model; cited from earlier work
[6] = test system: Wnt-β-catenin signaling pathway; conditions: B lymphoma cells; cited from earlier work
[7] = test system: primary neuronal cultures; conditions: cited from earlier work
[8] = biological target: amyloid beta (Aβ) (Homo sapiens, UniProt P05067); conditions: cited from earlier work
[9] = biological target: T2, endogenous LRRK2 protein (Mus musculus, UniProt Q5S006); experiment: Western blot of endogenous LRRK2 in N9 cells; assay type: cell-based; conditions: 1 μM, 24 hours
T2 construct: N9 cells were used because they express high levels of endogenous LRRK2; endogenous in cells; host or cells: N9
Procedure: as §1
N9 cells were grown in DMEM supplemented with 10% FBS, 1% penicillin and streptomycin, and 2% L-glutamine. N9 cells were used because they express high levels of endogenous LRRK2. They are very difficult to transfect and were only used to study the effect of hexachlorophene on wild-type LRRK2.
as §3

[10] = test system: synuclein; experiment: Synuclein level in HeLa cells (selectivity control); assay type: cell-based; conditions: 1 μM
[11] = biological target: T3, mutant (G2019S) LRRK2 (Homo sapiens, UniProt Q5S007, G2019S); experiment: Western blot of overexpressed mutant (G2019S) LRRK2 in transfected HeLa cells; assay type: cell-based; conditions: 1 μM, 24 hours, vs vehicle DMSO control
T3 construct: expressed in transfected cells; host or cells: HeLa
Procedure: as §1, §2, §3

[12] = test system: rats; conditions: oral; cited from earlier work
[13] = test system: N9 cells

T1 sequence (Q5S007 whole entry): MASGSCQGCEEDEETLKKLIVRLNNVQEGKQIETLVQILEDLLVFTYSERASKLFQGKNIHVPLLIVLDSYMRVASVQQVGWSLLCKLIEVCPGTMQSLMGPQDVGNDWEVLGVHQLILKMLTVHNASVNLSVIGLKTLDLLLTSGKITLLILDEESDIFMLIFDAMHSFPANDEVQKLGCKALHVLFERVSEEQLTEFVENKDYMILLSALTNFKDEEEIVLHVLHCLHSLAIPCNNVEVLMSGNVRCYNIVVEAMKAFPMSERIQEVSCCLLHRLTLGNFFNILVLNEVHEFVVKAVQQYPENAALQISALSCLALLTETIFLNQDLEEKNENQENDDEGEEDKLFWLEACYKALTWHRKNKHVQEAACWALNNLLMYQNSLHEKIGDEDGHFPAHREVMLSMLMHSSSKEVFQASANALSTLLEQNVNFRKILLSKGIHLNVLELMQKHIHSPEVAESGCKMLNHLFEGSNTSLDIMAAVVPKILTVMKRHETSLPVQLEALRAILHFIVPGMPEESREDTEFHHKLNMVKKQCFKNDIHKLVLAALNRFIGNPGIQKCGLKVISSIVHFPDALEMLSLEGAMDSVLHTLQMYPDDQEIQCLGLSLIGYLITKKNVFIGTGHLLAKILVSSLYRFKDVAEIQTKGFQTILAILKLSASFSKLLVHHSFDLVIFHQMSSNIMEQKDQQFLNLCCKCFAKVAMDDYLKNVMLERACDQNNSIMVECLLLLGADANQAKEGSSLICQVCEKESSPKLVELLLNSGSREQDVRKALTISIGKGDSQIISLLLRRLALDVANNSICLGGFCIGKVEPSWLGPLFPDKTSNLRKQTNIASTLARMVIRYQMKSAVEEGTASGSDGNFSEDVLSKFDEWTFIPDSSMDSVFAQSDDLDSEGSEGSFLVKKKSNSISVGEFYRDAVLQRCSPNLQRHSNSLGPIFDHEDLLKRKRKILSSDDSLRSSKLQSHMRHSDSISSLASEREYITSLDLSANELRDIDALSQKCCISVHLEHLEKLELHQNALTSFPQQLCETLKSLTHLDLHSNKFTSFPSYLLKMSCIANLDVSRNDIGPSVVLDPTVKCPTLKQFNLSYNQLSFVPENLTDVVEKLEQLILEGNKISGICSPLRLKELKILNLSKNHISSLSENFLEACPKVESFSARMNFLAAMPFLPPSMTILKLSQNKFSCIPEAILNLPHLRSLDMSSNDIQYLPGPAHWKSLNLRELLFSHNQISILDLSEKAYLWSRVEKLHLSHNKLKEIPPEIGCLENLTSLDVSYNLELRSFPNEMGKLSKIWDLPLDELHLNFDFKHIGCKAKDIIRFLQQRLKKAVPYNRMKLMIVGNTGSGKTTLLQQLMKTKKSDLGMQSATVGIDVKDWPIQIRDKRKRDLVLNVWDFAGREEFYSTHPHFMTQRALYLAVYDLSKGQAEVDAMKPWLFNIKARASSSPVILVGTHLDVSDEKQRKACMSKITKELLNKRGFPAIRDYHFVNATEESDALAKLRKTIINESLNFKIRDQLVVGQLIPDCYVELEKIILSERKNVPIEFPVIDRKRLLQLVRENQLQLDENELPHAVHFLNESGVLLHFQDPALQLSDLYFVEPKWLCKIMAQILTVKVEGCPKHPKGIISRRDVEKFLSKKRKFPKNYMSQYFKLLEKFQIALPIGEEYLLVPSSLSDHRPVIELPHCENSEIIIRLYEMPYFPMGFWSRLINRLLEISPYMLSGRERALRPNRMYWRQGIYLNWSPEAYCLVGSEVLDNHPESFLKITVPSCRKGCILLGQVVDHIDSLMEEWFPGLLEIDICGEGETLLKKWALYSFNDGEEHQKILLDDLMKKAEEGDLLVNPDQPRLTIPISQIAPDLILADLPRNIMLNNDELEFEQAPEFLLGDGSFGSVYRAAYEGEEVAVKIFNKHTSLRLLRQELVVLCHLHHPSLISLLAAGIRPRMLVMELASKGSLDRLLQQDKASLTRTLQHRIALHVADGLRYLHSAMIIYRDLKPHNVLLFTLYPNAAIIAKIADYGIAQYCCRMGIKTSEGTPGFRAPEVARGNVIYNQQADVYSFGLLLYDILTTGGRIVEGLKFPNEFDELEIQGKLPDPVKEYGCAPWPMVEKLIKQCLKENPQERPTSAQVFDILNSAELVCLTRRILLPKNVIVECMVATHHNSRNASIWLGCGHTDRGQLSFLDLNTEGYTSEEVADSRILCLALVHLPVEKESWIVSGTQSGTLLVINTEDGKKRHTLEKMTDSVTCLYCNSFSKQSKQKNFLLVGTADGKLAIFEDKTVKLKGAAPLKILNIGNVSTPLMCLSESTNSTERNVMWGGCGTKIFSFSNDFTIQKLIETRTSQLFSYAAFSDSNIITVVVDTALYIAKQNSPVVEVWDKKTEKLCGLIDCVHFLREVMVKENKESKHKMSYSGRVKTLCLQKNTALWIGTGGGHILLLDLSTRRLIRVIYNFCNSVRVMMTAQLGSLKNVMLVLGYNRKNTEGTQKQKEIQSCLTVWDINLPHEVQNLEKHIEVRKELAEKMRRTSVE
T2 sequence (Q5S006 whole entry): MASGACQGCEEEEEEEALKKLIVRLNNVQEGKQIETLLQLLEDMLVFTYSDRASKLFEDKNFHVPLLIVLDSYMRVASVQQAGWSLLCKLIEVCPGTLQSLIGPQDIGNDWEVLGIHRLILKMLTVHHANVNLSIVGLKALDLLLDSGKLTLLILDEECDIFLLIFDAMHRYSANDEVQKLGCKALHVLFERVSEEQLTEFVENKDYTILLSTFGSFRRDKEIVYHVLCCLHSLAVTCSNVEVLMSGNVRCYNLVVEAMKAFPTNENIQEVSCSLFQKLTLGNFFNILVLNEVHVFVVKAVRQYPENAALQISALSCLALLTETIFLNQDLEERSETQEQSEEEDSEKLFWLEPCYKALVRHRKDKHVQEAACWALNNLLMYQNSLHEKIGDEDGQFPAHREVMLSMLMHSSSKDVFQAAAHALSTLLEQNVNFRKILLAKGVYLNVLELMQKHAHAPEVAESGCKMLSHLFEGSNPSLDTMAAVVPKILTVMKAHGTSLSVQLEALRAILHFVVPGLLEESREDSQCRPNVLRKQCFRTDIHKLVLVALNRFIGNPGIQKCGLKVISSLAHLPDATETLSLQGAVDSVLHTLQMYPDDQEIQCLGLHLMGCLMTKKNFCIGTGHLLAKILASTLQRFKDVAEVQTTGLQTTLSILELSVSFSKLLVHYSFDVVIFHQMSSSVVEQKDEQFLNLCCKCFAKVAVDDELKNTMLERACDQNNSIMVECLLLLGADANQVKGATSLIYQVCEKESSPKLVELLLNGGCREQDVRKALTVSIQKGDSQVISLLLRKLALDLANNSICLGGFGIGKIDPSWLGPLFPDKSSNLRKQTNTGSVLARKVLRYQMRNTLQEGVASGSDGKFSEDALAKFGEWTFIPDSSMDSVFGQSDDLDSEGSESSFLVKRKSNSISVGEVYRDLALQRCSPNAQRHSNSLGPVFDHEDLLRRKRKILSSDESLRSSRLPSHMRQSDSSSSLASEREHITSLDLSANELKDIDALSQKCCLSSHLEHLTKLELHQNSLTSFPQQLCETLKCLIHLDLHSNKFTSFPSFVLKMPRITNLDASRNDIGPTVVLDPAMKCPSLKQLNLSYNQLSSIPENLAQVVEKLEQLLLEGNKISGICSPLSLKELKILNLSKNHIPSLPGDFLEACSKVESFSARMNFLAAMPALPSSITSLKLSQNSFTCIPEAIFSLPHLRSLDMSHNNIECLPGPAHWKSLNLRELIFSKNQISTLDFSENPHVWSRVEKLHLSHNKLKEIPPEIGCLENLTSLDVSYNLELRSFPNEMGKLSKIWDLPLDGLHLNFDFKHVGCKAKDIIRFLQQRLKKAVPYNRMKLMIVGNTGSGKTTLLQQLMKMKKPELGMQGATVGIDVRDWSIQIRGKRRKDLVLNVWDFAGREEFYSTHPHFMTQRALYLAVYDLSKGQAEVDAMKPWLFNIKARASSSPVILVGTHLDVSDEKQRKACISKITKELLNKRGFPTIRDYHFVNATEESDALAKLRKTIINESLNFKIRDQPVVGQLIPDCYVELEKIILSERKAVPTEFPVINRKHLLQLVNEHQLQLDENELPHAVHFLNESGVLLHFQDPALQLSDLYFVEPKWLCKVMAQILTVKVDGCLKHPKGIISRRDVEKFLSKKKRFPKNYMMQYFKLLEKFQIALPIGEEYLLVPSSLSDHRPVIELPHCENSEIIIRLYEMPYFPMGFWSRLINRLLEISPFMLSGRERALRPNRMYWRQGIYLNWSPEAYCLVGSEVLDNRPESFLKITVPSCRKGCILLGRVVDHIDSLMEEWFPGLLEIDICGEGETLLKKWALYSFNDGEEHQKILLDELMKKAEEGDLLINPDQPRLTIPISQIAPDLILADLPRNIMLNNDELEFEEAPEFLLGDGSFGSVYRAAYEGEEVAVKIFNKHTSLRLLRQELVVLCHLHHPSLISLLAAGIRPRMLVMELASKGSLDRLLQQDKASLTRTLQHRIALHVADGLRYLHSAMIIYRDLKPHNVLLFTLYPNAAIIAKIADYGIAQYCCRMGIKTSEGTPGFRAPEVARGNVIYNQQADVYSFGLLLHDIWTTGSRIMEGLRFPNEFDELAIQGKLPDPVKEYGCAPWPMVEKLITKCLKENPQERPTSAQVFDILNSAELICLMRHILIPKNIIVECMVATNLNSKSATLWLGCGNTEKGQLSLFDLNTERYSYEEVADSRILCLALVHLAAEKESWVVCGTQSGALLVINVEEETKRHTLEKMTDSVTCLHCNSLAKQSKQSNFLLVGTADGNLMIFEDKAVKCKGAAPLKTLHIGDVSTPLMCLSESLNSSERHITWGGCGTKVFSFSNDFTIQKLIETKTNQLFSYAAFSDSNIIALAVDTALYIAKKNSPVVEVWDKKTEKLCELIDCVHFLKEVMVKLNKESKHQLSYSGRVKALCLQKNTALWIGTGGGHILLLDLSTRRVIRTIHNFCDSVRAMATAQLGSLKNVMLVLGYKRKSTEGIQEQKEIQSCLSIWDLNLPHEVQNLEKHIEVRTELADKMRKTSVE
T3 sequence (Q5S007 whole entry G2019S): as the sequence (Q5S007 whole entry) above, with G2019S counted along it
Sequence of amyloid beta (Aβ) (P05067 672-713 limits assumed): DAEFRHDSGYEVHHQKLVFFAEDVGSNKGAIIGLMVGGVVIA

For `CC1=C(CO)C(=O)O[C@@H]([C@@H](C)[C@H]2CC[C@H]3[C@@H]4C[C@H]5O[C@]56[C@@H](O)C=CC(=O)[C@]6(C)[C@H]4CC[C@]23C)C1` [withaferin A], the “clearance of LRRK2” value ([1]; WA in the presence of celastrol, additive manner) is given as “enhanced” and the “LRRK2 levels in cells” value ([1]; compound alone, dose and time dependent manner) is given as “reduced”.
For `CCCC(C(=O)OCCN(CC)CC)(c1ccccc1)c1ccccc1.Cl` [SKF-525A, 2-diethylaminoethyl-2,2-diphenylvalerate-Hcl], the “protective effect by route of administration” value ([2]; oral vs ip administration of the pre-treatment agent) is given as “only occurred upon oral administration” and the “protection from toxicity induced by B10” value [2] is given as “lessened toxicity”.
In the case of `C[N+](C)(C)C[C@H](O)CC(=O)[O-]` [L-carnitine], the “protection from toxicity induced by B10” value [2] is listed as “protected”.
With `Oc1c(Cl)cc(Cl)c(Cl)c1Cc1c(O)c(Cl)cc(Cl)c1Cl` [hexachlorophene, Hexachlorophene] the “overexpressed wild-type LRRK2 level” value ([3]; HeLa cells, 1 μM, 24 hours, vs vehicle DMSO control) was “selectively reduces; also recorded: decreased”, the “period of maximal effect on LRRK2 levels” value ([3]; cell line not stated (HeLa and N9 cells used)) was 24 h and the “cell death (LDH release)” value [4] was “minimal amounts of cell death”. The brain permeability [5] was 50%, the “effect on Wnt-β-catenin signaling pathway” value [6] was “inhibit” and the “protection from Aβ-induced toxicity” value [7] was “protect”. For the same molecule, the “effect on Aβ fibril formation” value [8] was “inhibit”, the “endogenous pLRRK2 level” value [9] was “reduces” and the “expression of endogenous LRRK2” value [9] was “reduces”. The effect on synuclein [10] was “does not affect”, the “overexpressed mutant (G2019S) LRRK2 level” value [11] was “selectively reduces; also recorded: decreased” and the LD50 [12] was 66 mg/kg. The “cell death (LDH release)” value [13] was “minimal amounts of cell death”.
For `CCOc1ccc2c(c1)C(C)=CC(C)(C)N2` [ethoxyquin], the “protection from toxicity induced by B10” value [2] is given as “protects”.
